Assay results taken from patent US20240350489A1, “LOU064 FOR TREATING MULTIPLE SCLEROSIS” (NOVARTIS AG, priority 2021, published 2024).
“Also recorded” adds a separate entry of the source. Where two headings read alike, the source gives them in different places.

Key:
[1] = target: T1, BTK (Homo sapiens, UniProt Q06187); assay: BTK occupancy in blood as biomarker for dose selection; assay type: in vivo; settings: low doses
T1 construct: simulate BTK occupancy in human spleen/tissues across a range of doses; from tissue; host or cells: human spleen / peripheral tissues (simulated, not sampled)
Excerpt: BTK occupancy in blood is not an informative biomarker for the purpose of dose selection due to LOU064 pharmacological properties (irreversible binding). […] Occupancy in tissue may be more representative of the efficacy of LOU064.

[2] = Co-administration with oral contraceptives; assay type: in vivo; settings: co-administered ethinylestradiol or levonorgestrel
[3] = Levels of LOU064 in mouse tissues (blood, brain, CSF); assay type: in vivo; settings: for concentration at 1 h / concentration at 5 h / concentration at 8 h: C57BL/6, mouse, oral
Experimental: The compound levels in total brain homogenate are very low and mainly detectable at the early timepoint. Similarly, the levels in cerebrospinal fluid (CSF) are low.
Blood, brain and CSF levels of LOU064 after oral dosing of 3 and 30 mg/kg b.i.d. The LLOQ were 0.2 nM in blood, […] in brain homogenate and 0.5 nM in CSF. Shown are averages ±SD from 4 animals for the 1 h timepoints and from 3 animals for the 5 and 8 h timepoints. Where denoted with ^a, the values were derived from one animal of three that was above the LLOQ.

[4] = Phase 2b trial in CSU, efficacy over 12 weeks; assay type: in vivo, human; settings: 25 mg b.i.d. regimen
Experimental: In a Phase 2b, randomized, double-blind, placebo-controlled trial evaluating the efficacy and safety of LOU064 over 12 weeks in patients inadequately controlled by Hi-antihistamines, with at least moderately active CSU, patients received LOU064 10 mg q.d. (once daily), 35 mg q.d., 100 mg q.d., 10 mg b.i.d. (twice daily), 25 mg b.i.d., 100 mg b.i.d., or placebo (1:1:1:1:1:1:1 ratio).

[5] = target: T2, BTK (Mus musculus, UniProt P35991); assay: BTK occupancy in spleen, lymph nodes and brain homogenate, HumanMOG EAE; assay type: in vivo
T2 construct: from tissue; host or cells: spleen, inguinal lymph nodes, blood and brain homogenate of C57BL/6 EAE mice
Experimental: BTK occupancy in spleen was determined at 1, 5 and 8 hours after b.i.d. oral dosing of LOU064 (FIG. 4).
BTK occupancy was assessed in brain homogenates that had been prepared for compound exposure analysis (FIG. 6). […] Variability in brain BTK occupancy might be due to the fact that the analysis was performed on the remainder of the homogenates prepared for compound level assessment.

[6] = 52-week open label extension study in CSU subjects, safety; settings: for safety signals / safety profile: 100 mg b.i.d. open-label, interim analyses
Experimental: In a 52-week open label extension study to evaluate the long-term safety and tolerability of LOU064 in eligible subjects with CSU who participated in the Phase 2b study the dose used was 100 mg b.i.d.

[7] = tested on: neuroinflammation signature in microglia; assay: scRNA-seq analysis of brains and spinal cords of RatMOG EAE mice; assay type: in vivo, mouse; settings: LOU064 vs controls
Experimental: 10X Genomics Chromium raw sequencing reads were processed with Cell Ranger [Zheng, G. et al. (2017), Nat Commun 8, 14049]. All subsequent analyses were carried out in R v4.1 and Bioconductor v3.14, loosely following the guidelines in “Orchestrating single-cell analysis with Bioconductor” [Amezquita, R. A. et al (2020), Nat Methods 17, 137-145] and using the framework provided by the scuttle, scater [Davis J McCarthy et al. (2017), Bioinformatics, Vol 33, 8, 1179-1186] and scran [Lun ATL et al. (2016), F1000 Research, 5:2122;
To correct for library size and composition biases, normalization was performed by pooling cells and deconvoluting size factors, followed by a log2 transformation. […]
For each cell type, pseudobulk differential expression analysis was performed using edgeR [Robinson M D et al. (2010), Bioinformatics, 26(1), 139-140], followed by gene set enrichment analysis with fgsea [Gennady Korotkevich et al., doi: https://doi.org/10.1101/060012] and multiple gene set collection from MSigDB [Arthur Liberson et al., Bioinformatics, Vol 27, 12:1739-1740]. A neuroinflammation signature from the Human Phenotype Ontology [Kohler S. et al. (2021) Nucleic Acids Res. 49(D1):D1207-D1217. doi: 10.1093/nar/gkaa1043] was scored with UCell [Andreatta M. et al. (2021), Comput Struct Biotechnol J. 19:3796-3798] and its significance assessed with a one-tailed Mann-Whitney U test.

[8] = 3 mg/kg b.i.d., 1, 5 and 8 hours after dosing
[9] = 30 mg/kg b.i.d., 1, 5 and 8 hours after dosing
[10] = 100 mg B.I.D., N = 100, interim cut off 31 Aug. 2020
[11] = ES, 100 mg b.i.d., N = 183, listed as remibrutinib

T2 sequence (P35991 whole entry): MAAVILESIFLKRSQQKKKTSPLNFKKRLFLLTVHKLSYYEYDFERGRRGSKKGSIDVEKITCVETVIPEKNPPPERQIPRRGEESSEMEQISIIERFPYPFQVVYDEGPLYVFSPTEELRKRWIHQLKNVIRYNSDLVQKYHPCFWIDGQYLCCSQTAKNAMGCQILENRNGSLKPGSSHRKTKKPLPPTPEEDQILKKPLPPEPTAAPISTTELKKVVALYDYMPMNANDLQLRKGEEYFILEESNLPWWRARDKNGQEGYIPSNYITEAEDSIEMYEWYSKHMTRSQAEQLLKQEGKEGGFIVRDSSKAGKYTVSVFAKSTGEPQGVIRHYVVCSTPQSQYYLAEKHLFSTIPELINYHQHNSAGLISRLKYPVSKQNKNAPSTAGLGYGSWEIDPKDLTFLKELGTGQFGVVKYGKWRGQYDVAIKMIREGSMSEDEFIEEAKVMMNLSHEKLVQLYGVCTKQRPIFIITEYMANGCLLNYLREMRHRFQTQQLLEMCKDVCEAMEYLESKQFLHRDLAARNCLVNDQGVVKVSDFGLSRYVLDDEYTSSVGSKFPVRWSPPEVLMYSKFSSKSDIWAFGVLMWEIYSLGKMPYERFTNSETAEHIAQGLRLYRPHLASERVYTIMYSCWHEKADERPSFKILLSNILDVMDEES
T1 sequence (Q06187 whole entry): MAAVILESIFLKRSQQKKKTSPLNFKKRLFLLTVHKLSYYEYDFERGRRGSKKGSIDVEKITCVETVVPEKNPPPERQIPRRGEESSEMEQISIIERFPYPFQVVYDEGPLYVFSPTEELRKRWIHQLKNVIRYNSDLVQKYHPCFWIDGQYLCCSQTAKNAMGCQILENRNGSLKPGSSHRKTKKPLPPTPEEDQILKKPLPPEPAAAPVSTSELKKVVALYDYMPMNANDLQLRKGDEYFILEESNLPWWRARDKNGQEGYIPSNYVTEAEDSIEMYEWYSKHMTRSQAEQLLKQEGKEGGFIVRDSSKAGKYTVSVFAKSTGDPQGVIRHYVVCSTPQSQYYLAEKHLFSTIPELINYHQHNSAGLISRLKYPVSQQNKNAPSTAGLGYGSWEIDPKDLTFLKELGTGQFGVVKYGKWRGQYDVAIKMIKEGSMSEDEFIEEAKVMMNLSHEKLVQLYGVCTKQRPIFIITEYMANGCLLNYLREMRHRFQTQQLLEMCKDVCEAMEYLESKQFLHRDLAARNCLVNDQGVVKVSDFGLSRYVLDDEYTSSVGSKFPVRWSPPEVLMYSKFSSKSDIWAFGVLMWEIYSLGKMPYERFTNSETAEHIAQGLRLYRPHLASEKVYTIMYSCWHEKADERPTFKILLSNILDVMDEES

## C=CC(=O)N(C)CCOc1c(N)ncnc1-c1cc(F)cc(NC(=O)c2ccc(C3CC3)cc2F)c1C [LOU064, N-(3-(6-amino-5-(2-(N-methylacrylamido)ethoxy)pyrimidin-4-yl)-5-fluoro-2-methylphenyl)-4-cyclopropyl-2-fluorobenzamide]
[1]
  BTK occupancy in blood: reaches full occupancy even at low doses
[2]
  impact on exposure and efficacy of oral contraceptives: without a major impact on their exposure and efficacy
[3]; 3 mg/kg p.o. b.i.d., 1 h
  Levels of LOU064, Brain: 2.3 ± 2.2 pmol/g
[3]; 3 mg/kg p.o. b.i.d., 5 h
  Levels of LOU064, Brain: <0.5 pmol/g
[3]; 3 mg/kg p.o. b.i.d., 8 h
  Levels of LOU064, Brain: <0.5 pmol/g
[3]; 30 mg/kg p.o. b.i.d., 1 h
  Levels of LOU064, Brain: 13.5 ± 6.0 pmol/g
  Levels of LOU064, CSF: 8.4 ± 3.1 nM
[3]; 30 mg/kg p.o. b.i.d., 5 h
  Levels of LOU064, Brain: 0.7 ± 0.02 pmol/g
[3]; 30 mg/kg p.o. b.i.d., 8 h
  Levels of LOU064, Brain: <0.5 pmol/g
[3]; CSF, 3 mg/kg p.o. b.i.d., 1 h, read-out: Levels of LOU064, CSF
  concentration at 1 h: 3 ± 3.3 nM
[3]; CSF, 3 mg/kg p.o. b.i.d., 5 h, one animal of three above LLOQ, read-out: Levels of LOU064, CSF
  concentration at 5 h: 0.5 nM
[3]; CSF, 3 mg/kg p.o. b.i.d., 8 h, read-out: Levels of LOU064, CSF
  concentration at 8 h: < 0.5 nM
[3]; CSF, 30 mg/kg p.o. b.i.d., 5 h, one animal of three above LLOQ, read-out: Levels of LOU064, CSF
  concentration at 5 h: 0.5 nM
[3]; CSF, 30 mg/kg p.o. b.i.d., 8 h, read-out: Levels of LOU064, CSF
  concentration at 8 h: < 0.5 nM
[3]; whole blood, 3 mg/kg p.o. b.i.d., 1 h, read-out: Levels of LOU064, Blood
  concentration at 1 h: 28.2 ± 11.7 nM
[3]; whole blood, 3 mg/kg p.o. b.i.d., 5 h, read-out: Levels of LOU064, Blood
  concentration at 5 h: 0.4 ± 0.04 nM
[3]; whole blood, 3 mg/kg p.o. b.i.d., 8 h, read-out: Levels of LOU064, Blood
  concentration at 8 h: 0.2 ± 0.07 nM
[3]; whole blood, 30 mg/kg p.o. b.i.d., 1 h, read-out: Levels of LOU064, Blood
  concentration at 1 h: 371 ± 149 nM
[3]; whole blood, 30 mg/kg p.o. b.i.d., 5 h, read-out: Levels of LOU064, Blood
  concentration at 5 h: 19.4 ± 9.9 nM
[3]; whole blood, 30 mg/kg p.o. b.i.d., 8 h, read-out: Levels of LOU064, Blood
  concentration at 8 h: 3.4 ± 2.3 nM
[4]
  efficacy in CSU: particularly effective compared to the other doses
[5]; [8]
  BTK occupancy in lymph nodes: maximal for both doses and showed a decay after a 3 mg/kg dose; also recorded: complete BTK occupancy
  BTK occupancy in spleen: maximal for both doses and showed a decay after a 3 mg/kg dose; also recorded: complete BTK occupancy
[5]; 3 mg/kg b.i.d., 1 hour timepoint
  BTK occupancy in brain homogenate: only minimal BTK occupancy
[5]; 30 mg/kg b.i.d.
  BTK occupancy in brain homogenate: maximal BTK occupancy with a decline over the dosing interval
[5]; [9]
  BTK occupancy in lymph nodes: a more sustained occupancy after the 30 mg/kg dose
  BTK occupancy in spleen: a more sustained occupancy after the 30 mg/kg dose
[6]; [10]
  Death: 0 n
  Discontinued study due to an SAE(s): 0 n
[6]
  safety signals / safety profile: No safety signal has been observed; also recorded: no safety signals have been observed; also recorded: well tolerated and with a favorable safety profile
[6]; listed as Remibrutinib
  safety signals / safety profile: no new safety signals
[6]; 100 mg b.i.d. over an extended period of time
  dose-limiting liver enzyme elevations and other off-target-effects: does not induce any dose-limiting liver enzyme elevations and other off-target-effects
[6]; 100 mg b.i.d., N = 100 interim
  AE Headache (PT): 6%
  AE Infections and infestations (SOC): 14%
  AE Skin and subcutaneous tissue disorders (SOC): 13%
  AE diarrhea (PT): 4%
  AE dizziness (PT): 3%
  AE gastroenteritis (PT): 3%
  bleeding events or events under SOC Blood and lymphatic system disorders: no bleeding events
[6]; ES and CS, any patient
  ECG findings or QT of >500 ms: no significant ECG findings or QT of >500 ms noted in any patient
[6]; [11]
  AE Headache (PT): 6.6%
  AE Infections and infestations (SOC): 23.0%
  AE Skin and subcutaneous tissue disorders (SOC): 17.5%
  Discontinued study treatment due to AE(s): 6 n
  Patients with SAE(s): 4 n
[6]; ES, 100 mg b.i.d., N=183
  AE Skin and subcutaneous tissue disorders (SOC): 32 n
  Incidence of AESI bleeding: 4.4%
  Incidence of AESI cytopenias: 0.5%
  Incidence of AESI infections: 23%
  deaths: no deaths
[6]; ES, N=183, normalized within 4 weeks
  patients with isolated ALT>3xULN: 1 patient
[7]
  neuroinflammation gene signature in microglia: significant downregulation across most conditions; also recorded: significantly downregulated
